In the test the target is T1, human PKR1 receptors (Homo sapiens, UniProt Q8TCW9).
T1 construct: expressed in transfected cells; host or cells: RBL2H3 cells (rat basophilic leukaemia line) expressing human PKR1
Description: PKR1 antagonist assay: block of PK1-mediated intracellular calcium release (FLIPR Tetra, Calcium 5 dye). The format is cell-based. Particulars: RBL2H3 cells expressing human PKR1; 10 min pre-incubation, stimulation with PK1 at EC80; calcium fluorescence. A digest of the protocol:
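RBL2H3 cells expressing human PKR1, loaded 1 h at 37 °C with Calcium 5 dye plus 1 mM probenecid in HBSS/25 mM HEPES/0.1% BSA, pH 7.4. Compounds (0.32 nM–10 µM final) preincubated 10 min, then PK1 added at EC80; fluorescence read at 525 nm (excitation 485 nm).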

T1 sequence (Q8TCW9 whole entry): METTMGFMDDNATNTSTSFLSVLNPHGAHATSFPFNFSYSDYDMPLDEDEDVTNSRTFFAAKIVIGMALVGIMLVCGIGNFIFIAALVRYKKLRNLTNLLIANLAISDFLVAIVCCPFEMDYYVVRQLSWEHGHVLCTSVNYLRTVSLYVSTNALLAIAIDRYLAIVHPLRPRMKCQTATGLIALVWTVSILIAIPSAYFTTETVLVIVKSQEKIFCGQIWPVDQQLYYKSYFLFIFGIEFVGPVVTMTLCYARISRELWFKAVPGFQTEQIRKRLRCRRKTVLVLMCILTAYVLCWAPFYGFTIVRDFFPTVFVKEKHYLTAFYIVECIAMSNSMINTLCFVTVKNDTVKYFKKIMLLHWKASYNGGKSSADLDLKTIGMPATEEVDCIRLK

On to `Cc1nn(C)c(C)c1S(=O)(=O)N1CCC(C(=O)c2ccc(Cl)cc2)CC1` [Example 49, (4-Chlorophenyl)(1-((1,3,5-trimethyl-1H-pyrazol-4-yl)sulfonyl)piperidin-4-yl)methanone], for which the IC50 was determined as 1000 nM. As for `Cc1nn(C)c(C)c1S(=O)(=O)N1CCC(Nc2ccc(Cl)cc2)CC1` [Example 51, N-(4-Chlorophenyl)-1-((1,3,5-trimethyl-1H-pyrazol-4-yl)sulfonyl)piperidin-4-amine], the figure is 1500 nM.

The values are drawn from US20130324576A1, “THERAPEUTIC COMPOUNDS” (Takeda Pharmaceutical Company Limited, priority 2012, published 2013).
